From publication PMC9682871 (Antiviral Research, 2022) come the findings set out here.

The subject of one series is HCoV-OC43. In kind it is cell-based.
Series [1] relates to pseudovirus presenting the spike of MERS-CoV. In words: organism not typed. Type of series: cell-based.
The next series deals with HCoV-229E. In kind it is cell-based.
The next series relates to SARS-CoV. In kind it is cell-based.
Series [2] has as its system MERS-CoV. Type of series: cell-based.
Series [3] relates to MERS-CoV. Type of series: cell-based. This is another data set of the same source.
The test system of series [4] is A549 cells. In kind it is cell-based. The following applies: 10 μM, 12 h.
The subject of series [5] is SARS-CoV-2. Type of series: cell-based.
Series [6] has as its system A549 cells. In kind it is cell-based. Particulars: 10 μM, 12 h. This is another data set of the same source.
Series [7] deals with SARS-CoV-2. Particulars: hamster, in vivo.

In the case of `CCCCc1oc2ccccc2c1C(=O)c1cc(I)c(OCCN(CC)CC)c(I)c1` [amiodarone], the “efficacy against HCoV-OC43” value in the series with HCoV-OC43 is “showed efficacy”. Moreover, the “pseudovirus infection / luciferase signal” value in series [1] is reported as “outstanding antiviral activity”. Further, the “efficacy against HCoV-229E” value in the series on HCoV-229E is “showed efficacy”. For the same compound, the “potency against SARS-CoV” value with SARS-CoV was “strong potency”. The “inhibition by time of addition” value in the series on MERS-CoV [2] is recorded as “strongly inhibited the viral infection when added at an early time point”.
For the compound `CCN(CC)CCCC(C)Nc1ccnc2cc(Cl)ccc12` (centres unmarked) [chloroquine], the “MERS-CoV infection assay, immunofluorescence” value with MERS-CoV [3] is “quenched in a concentration-dependent manner”. Also, the “inhibition by time of addition” value with MERS-CoV [2] is recorded as “stage-selective activity”.
On to `Cc1cccc(C)c1OCC(=O)N[C@@H](Cc1ccccc1)[C@@H](O)C[C@H](Cc1ccccc1)NC(=O)[C@H](C(C)C)N1CCCNC1=O` [lopinavir], for which the “MERS-CoV infection assay, immunofluorescence” value in the series with MERS-CoV [3] was “quenched in a concentration-dependent manner”. Also, the “inhibition by time of addition” value in the series on MERS-CoV [2] is given as “showed efficacy when added at a relatively later stage of infection”.
Consider `O=C(c1ccc(OCCN2CCCCC2)cc1)c1c(-c2ccc(O)cc2)sc2cc(O)ccc12` [raloxifene], for which, in the series with A549 cells [4], the “total cellular cholesterol” value was “marginal elevation”. Moreover, in the series on HCoV-OC43, the “efficacy against HCoV-OC43” value is recorded as “effective”. The “inhibition of SARS-CoV-2 infection by viral RNA” value with SARS-CoV-2 [5] is “strong potency”. The “cytotoxic effects in the pseudovirus assay” value with Huh-7 cells was “no significant cytotoxic effects”. In addition, the EC50 in [1] (Huh-7, read-out: Pseudovirus (EC50, μM)) amounted to 0.2 µM. The “efficacy against HCoV-229E” value in the series with HCoV-229E was “effective”. Moreover, the “potency against SARS-CoV” value with SARS-CoV is “strong potency”. For the same compound, in the series on A549 cells [6], the “CH25H gene expression” value was “do not show alteration” and the “SQLE expression” value is “significantly enhanced”. Moreover, the “activity level or survival rate” value in the series with SARS-CoV-2 [7] is reported as “no significant changes”. Further, the “inhibition by time of addition” value in the series with MERS-CoV [2] is reported as “more potent when added at the earlier stages”.
